Assay results: patent publication US20160039904A1, “STABILIZED SINGLE HUMAN CD4 DOMAINS AND FUSION PROTEINS” (priority 2013, published 2016)
Where two headings read alike, the source gives them in different places.

Assays:
HIV-1 AE03 = format: cell-based; details: Table 7; AE03, clade AE, R5
HIV-1 KNH1088.EC5 = assay: TZM-bl cell-based neutralization assay; details: Table 6; KNH1088.EC5, clade A, R5
HIV-1 N1 1046.e3 PV = assay: TZM-bl cell-based neutralization assay; details: Table 6, clade AE, R5
HIV-1 CH70 = format: cell-based; details: Table 7; CH70, clade BC, R5
HIV-1 CNE107 = format: cell-based; details: Table 7; CNE107, clade AE, X4
HIV-1 CNE16 = format: cell-based; details: Table 7; CNE16, clade BC, R5
[1] = test system: HIV-1 primary isolates Bal and JRFL; format: cell-based; details: in contrast to D1D2
[2] = Dynamic light scattering (aggregation); format: physicochemical
Protocol: To test whether soluble aggregates of 4Dm2m and 6Dm2m formed during prolonged incubation, dynamic light scattering (DLS) was used. Proteins concentrated to 10 mg/ml in PBS were stored at […] and slowly thawed on ice before measurements.

HIV-1 57128.VRC18 = assay: TZM-bl cell-based neutralization assay; details: Table 6; 57128.VRC18, clade D, R5
[3] = test system: HIV-1 isolates from clades A to D, AE, and AG; assay: TZM-bl cell-based neutralization assay, means over the panel (n=12); details: Table 6, all viruses, >167 nM assigned 200, >250 assigned 300
HIV-1 CH114 = format: cell-based; details: Table 7; CH114, clade BC, R5
HIV-1 CNE59 = format: cell-based; details: Table 7; CNE59, clade AE, R5
HIV-1 55815.EC3 = assay: TZM-bl cell-based neutralization assay; details: Table 6; 55815.EC3, clade AG, R5
HIV-1 CNE53 = format: cell-based; details: Table 7; CNE53, clade BC, R5
HIV-1 AE20 = format: cell-based; details: Table 7; AE20, clade AE, R5
HIV-1 Bal.EC1 TC = assay: TZM-bl cell-based neutralization assay; details: Table 6, clade B, R5
HIV-1 A07412VRC12A = assay: TZM-bl cell-based neutralization assay; details: Table 6, clade D, R5
HIV-1 CNE66 = format: cell-based; details: Table 7; CNE66, clade C, R5
[4] = next 5 days of incubation (days 5-10), 37° C.
Protocol: The proteins were then assessed for their stability against degradation during 15 days of incubation with PBS (see FIG. 12A) or human serum (see FIG. 12B) at 37° C.

HIV-1 CNE15 = format: cell-based; details: Table 7; CNE15, clade BC, R5
[5] = Stability against degradation in PBS at 37° C. (binding activity to gp140Con-s); format: physicochemical
HIV-1 IIIB = assay: Pseudotyped HIV-1 neutralization (HOS-CD4-CXCR4 cells); format: cell-based; details: Table 3, clade B, X4
Protocol: (§1) To determine the potency and breadth of HIV-1 neutralization by the D1 mutants, viruses pseudotyped with Envs from HIV-1 isolates representing clades A-E and using either CCR5 (R5) or CXCR4 (X4) or both (R5X4) as a coreceptor were included. Pseudoviruses were derived from 293T cells and a neutralization assay was performed in duplicate using HOS-CD4-CCR5 (for all R5 and dual tropic viruses) or HOS-CD4-CXCR4 cell lines as described in Chen et al., Proc. Natl. Acad. Sci. USA, 105: 17121-17126 (2008)). Luminescence was measured 48 hours post-infection and the percentage neutralization was calculated by the following formula: (1—average RLU of inhibitor-containing wells/average RLU or virus-only wells)×100.

HIV-1 NL4-3 = assay: as above; format: cell-based; details: Table 3; NL4-3, clade B, X4
Protocol: as §1

HIV-1 PBL286.VRC36aPV = assay: TZM-bl cell-based neutralization assay; details: Table 6, clade C, R5
[6] = Solubility of fusion proteins in PBS (concentration, centrifugation); format: physicochemical
Protocol: To evaluate the potential for further development as drugs, several drug-related properties, including solubility, stability, and aggregation propensity were tested.

HIV-1 CAM0015BBY.EC3 = assay: TZM-bl cell-based neutralization assay; details: Table 6; CAM0015BBY.EC3, clade AG, R5
HIV-1 GS-015.EC12 = assay: TZM-bl cell-based neutralization assay; details: Table 6; GS-015.EC12, clade C, R5
HIV-1 CM243 = assay: Pseudotyped HIV-1 neutralization (HOS-CD4-CCR5 cells); format: cell-based; details: Table 3; CM243, clade E, R5
Protocol: as §1

4Dm2m: bispecific multivalent fusion protein of mD1.22 and m36.4; two SEQ ID NO: 20 and two SEQ ID NO: 21 chains
IC50 (HIV-1 AE03): 0.67 nM | IC50 (HIV-1 KNH1088.EC5): 0.48 nM | IC90 (HIV-1 N1 1046.e3 PV): 27 nM | IC50 (HIV-1 CH70): 0.11 nM | IC90 (HIV-1 CH70): 1.2 nM | IC50 (HIV-1 CNE107): 0.52 nM | IC50 (HIV-1 CNE16): 0.08 nM | IC90 (HIV-1 CNE16): 1.2 nM | enhancement of HIV-1 infectivity at low concentrations [1]: not enhance HIV-1 infectivity | aggregation propensity [2]: low aggregation propensity | aggregation during incubation (DLS) ([2]; 10 mg/ml in PBS, 4° C. and 37° C.): disappeared within the first day of incubation | average diameter of particles (DLS) ([2]; 10 mg/ml in PBS, after freeze-thaw, predominantly small particles): 16.3 nm | IC50 (HIV-1 57128.VRC18): 0.4 nM | IC90 (HIV-1 57128.VRC18): 2.8 nM | IC50 ([3]; read-out: IC50, arithmetic mean): 0.72 nM | IC50 ([3]; read-out: IC50, geometric mean): 0.28 nM | IC90 ([3]; read-out: IC90, geometric mean): 2.4 nM | IC50 (HIV-1 CH114): 0.11 nM | IC90 (HIV-1 CH114): 4 nM | IC90 (HIV-1 CNE59): 2.7 nM | IC50 (HIV-1 55815.EC3): 0.084 nM | IC90 (HIV-1 55815.EC3): 0.61 nM | IC50 (HIV-1 CNE53): 0.24 nM | IC90 (HIV-1 CNE53): 5.5 nM | IC50 (HIV-1 AE20): 0.72 nM | IC50 (HIV-1 Bal.EC1 TC): 0.057 nM | IC90 (HIV-1 Bal.EC1 TC): 0.22 nM | IC50 (HIV-1 A07412VRC12A): 0.75 nM | IC90 (HIV-1 A07412VRC12A): 5.7 nM | IC90 (HIV-1 CNE66): 7.7 nM | degradation in human serum [4]: slower than that of CD4-Ig | IC50 (HIV-1 CNE15): 0.29 nM | IC90 (HIV-1 CNE15): 2.6 nM | remained functional ([5]; end of 15 days of incubation with PBS): about 90% | amount of functional protein ([5]; incubation in PBS for 10 days): no significant decrease | IC50 (HIV-1 IIIB): 0.037 ± 0.001 nM | IC90 (HIV-1 IIIB): 0.1 ± 0.01 nM | IC50 (HIV-1 NL4-3): 0.094 ± 0.002 nM | IC90 (HIV-1 NL4-3): 0.15 ± 0.02 nM | IC50 (HIV-1 PBL286.VRC36aPV): 2 nM | precipitation on storage ([6]; 4° C. for 2 weeks): no additional precipitation was observed | concentration reached in PBS without visible precipitation after high-speed centrifugation ([6]; PBS): 25000 µg/mL | IC50 (HIV-1 CAM0015BBY.EC3): 0.72 nM | IC90 (HIV-1 CAM0015BBY.EC3): 7.4 nM | IC50 (HIV-1 GS-015.EC12): 0.022 nM | IC50 (HIV-1 CM243): 0.29 ± 0.11 nM | IC90 (HIV-1 CM243): 1.2 ± 0.6 nM

enfuvirtide
IC50 (HIV-1 AE03): 304 nM | IC90 (HIV-1 AE03): 510 nM | IC50 (HIV-1 CH70): 65 nM | IC90 (HIV-1 CH70): > 750 nM | IC50 (HIV-1 CNE107): 3.8 nM | IC90 (HIV-1 CNE107): 45 nM | IC50 (HIV-1 CNE16): 14 nM | IC90 (HIV-1 CNE16): 169 nM | IC50 (HIV-1 CH114): 102 nM | IC90 (HIV-1 CH114): > 750 nM | IC50 (HIV-1 CNE59): 1.4 nM | IC90 (HIV-1 CNE59): 17 nM | IC50 (HIV-1 CNE53): 51 nM | IC90 (HIV-1 CNE53): 721 nM | IC50 (HIV-1 AE20): 212 nM | IC90 (HIV-1 AE20): 572 nM | IC50 (HIV-1 CNE66): 129 nM | IC90 (HIV-1 CNE66): 729 nM | IC50 (HIV-1 CNE15): 14 nM | IC90 (HIV-1 CNE15): 157 nM
